Source: article PMC4464085, “Exploring monovalent and multivalent peptides for the inhibition of FBP21-tWW” (Beilstein Journal of Organic Chemistry, 2015)
Ends that are not written are not given here.

Legend:
FBP21-WW2 = biological target: T1, FBP21-WW2 (Homo sapiens, UniProt O75554); experiment: Isothermal titration calorimetry (ITC) with FBP21-WW2; type: binding; settings: PBS pH 7.4, 25 °C, protein in cell 250 µM, peptide in syringe 5 mM, GST-tagged FBP21-WW2
T1 construct: with regard to FBP21’s WW domains by ITC; GST (N); made in house; host or cells: E. coli BL21 DE3 (pGEX4T1)
T1 sequence (O75554 163-196 limits assumed): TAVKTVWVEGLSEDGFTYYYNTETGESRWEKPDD
Experimental: (§1) Isothermal titration calorimetry
(§2) The His6-FBP21-tWW, FBP21-WW1 and FBP21-WW2 were dialyzed against PBS, pH 7.4.
(§3) Peptides were dissolved in PBS and the pH was adjusted to 7.4. hPG-peptide conjugate 2 was dialyzed against Millipore water and the buffer components were adjusted to PBS pH 7.4. The concentration was analyzed for all components by measuring absorbance at 280 nm using a Nanodrop2000 (Thermo Scientific). Extinction coefficients were Ɛ = 5500 M−1cm−1 for WPPPPRVPR and Ɛ = 32430 M−1cm−1 for FBP21-tWW. Accounting for the number of peptides on the scaffold, we calculated an extinction coefficient of Ɛ = 38500 M−1cm−1 for the hPG-peptide conjugate 2. ITC experiments were carried out on a Microcal ITC200 (GE Healthcare).
(§4) The parameters were set to: temperature 25 °C, spacing: 120 s (for WW1 and WW2 measurements) or 180 s (for tWW measurements), stirring speed: 1000 rpm, feedback gain: high, Filter: 5 s, DP: 7 µcal/s. In ITC measurements with FBP21 WW1 and WW2, the protein in the cell was concentrated to 250 µM, the peptide in the syringe to 5 mM, injected was 1 × 1 µL, then 15 × 2.5 µL. In ITC measurements with FBP21-tWW and peptide the protein concentration in the cell was 200 µM and the peptide concentration in the syringe 4 mM. In ITC measurements with FBP21-tWW and the hPG-peptide conjugate 2, the concentration of 2 in the cell was 90 µM and FBP21-tWW in the syringe 1.4 mM. Injected was 1 × 1 µL, then 19 × 2 µL. The data was analyzed with Origin and the Microcal ITC 200 AddOn. To obtain the stoichiometry (N) and the […]
particles and grown overnight at 30 °C, 250 rpm. The bacteria were pelleted; Phages were precipitated from the supernatant using 20% PEG, 2.5 M NaCl. The precipitated phages were pelleted and washed before resuspension in PBS/30% glycerol.
Protein expression and purification
FBP21-WW1 and FBP21-WW2 were expressed as a GST-tagged variant from pgex4T1 in E. coli BL21 DE3, FBP21-tWW was expressed from a pET28a-His6-FBP21-tWW plasmid in E. coli BL21 DE3 as described previously. Proteins were purified by the corresponding affinity matrices and applied to a HiLoad S75 Superdex 16/60 column in 1 × PBS, pH 7.4.
Proteins were concentrated by Centrifugal Filter Units (regenerated cellulose, 3000 MWCO, […]
SPOT analyses were performed as described. Membranes were blocked with 5% BSA in PBS, washed and incubated with GST, GST-WW1 or GST-WW2 at a concentration of 7.5 µg/mL (GST) or 10 µg/mL (GST-WW1, GST-WW2) respectively overnight at 4 °C. After washing, the spot arrays were incubated with a primary anti-GST antibody (Santa Cruz, GST-Z5, sc-459, 1:1000) for one hour at room temperature in blocking buffer, washed again and incubated for one hour with a secondary anti-rabbit antibody (goat anti-rabbit, Santa Cruz, sc-2004, 1:10000) at room temperature in blocking buffer. The peptide spot arrays were developed with HRP juice purchased from pjk GmbH on an Intas Advanced Fluorescence and ECL imager.
Synthesis of hPG-peptide conjugate 2
The peptide carboxylic acid, i.e., Ac-WPPPPRVPRGSG-COOH (0.0067 mmol, 9 mg), was dissolved in 2 mL dry DMF and cooled down to 0 °C using an ice bath under argon atmosphere.
To the cooled solution, N-hydroxysuccinimide (0.013 mmol, 1.54 mg) and DCC (0.013 mmol, 2.76 mg) were added. The ice bath was removed and the reaction mixture was allowed to stir at room temperature overnight. […]

FBP21-WW1 = biological target: T2, FBP21-WW1 (Homo sapiens, UniProt O75554); experiment: Isothermal titration calorimetry (ITC) with FBP21-WW1; type: binding; settings: PBS pH 7.4, 25 °C, protein in cell 250 µM, peptide in syringe 5 mM, GST-tagged FBP21-WW1
T2 construct: with regard to FBP21’s WW domains by ITC; GST (N); made in house; host or cells: E. coli BL21 DE3 (pGEX4T1)
T2 sequence (O75554 122-155 limits assumed): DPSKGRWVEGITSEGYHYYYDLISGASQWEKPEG
Experimental: In order to determine an optimal peptide sequence for a FBP21-tWW ligand, we conducted a phage display experiment for each of the two WW domains. Phages used in these experiments carried a randomized X9-peptide fused to phage coat protein VIII [16]. Enrichment factors were calculated after each selection cycle, and reached a plateau after four panning rounds. Phagemids were isolated and sequenced after the third and fourth panning rounds. The sequences for WW1 and WW2 were overlapping to a large extent, showing their similarity in binding preference. This is expected from evolutionary and binding studies carried out earlier. In agreement with previous findings for this group of WW domains a polyproline stretch and an arginine residue are present in most sequenced clones. […] To define an optimized single monovalent binder, we analyzed the affinities for a selected set of ligands from this panel of sequences with regard to FBP21’s WW domains by ITC under the same conditions as were used for the phage display. […] To further analyze which residues are essential for the interaction, we performed substitution analyses using peptide SPOT arrays (Figure 1D, Supporting Information File 1 Figure S1). The experiment gives some insight into binding specificities. The central role of proline P5 for binding of peptides is evident for both WW domains (Figure 1D, Supporting Information File 1 Figure S1). Proline fulfills two requirements. On the one hand it promotes formation of the PPII helix conformation, on the other hand, it is accommodated well into the hydrophobic groove provided by the individual WW domains. At position P4 proline can be replaced by leucine, a residue well compatible with the PPII helical conformation. Arginine is preferred at position 6 or 9, highlighting the importance of a positive charge in complex formation. […] Possibly, the hybrid resonance of the guanidinium group in the arginine is more important in the case of WW2 compared to WW1. […]
as §1, §2, §3
as §4, with “In ITC measurements with FBP21-tWW and the hPG-peptide conjugate 2, the concentration of 2 in the cell was 90 µM and FBP21-tWW in the syringe 1.4 mM. Injected was 1 × 1 µL, then 19 × 2 µL.” left out, “AddOn.” for “AddOn. To obtain the stoichiometry (N) and the”
FBP21-WW1 and FBP21-WW2 were expressed as a GST-tagged variant from pgex4T1 in E. coli BL21 DE3, FBP21-tWW was expressed from a pET28a-His6-FBP21-tWW plasmid in […]

FBP21-tWW = biological target: T3, FBP21-tWW (Homo sapiens, UniProt O75554); experiment: Isothermal titration calorimetry (ITC) with FBP21-tWW; type: binding; settings: PBS pH 7.4, 25 °C
T3 construct: made in house; host or cells: E. coli BL21 DE3 (pET28a)
T3 sequence (O75554 122-196 limits assumed): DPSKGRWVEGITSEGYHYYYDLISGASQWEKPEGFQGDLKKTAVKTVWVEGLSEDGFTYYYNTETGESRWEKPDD
Experimental: ITC measurements were performed to analyze the dissociation constant KD of the interaction between FBP21-tWW and hPG-peptide conjugate 2 in PBS, pH 7.4 (Figure 2A). To compare the KD values we also analyzed the binding between FBP21-tWW and the monovalent peptide ligand Ac-WPPPPRVPRGSG-COOH (Figure 2B). […] However, when considering that ≈7 peptides are bound per nanoparticle, the actual multivalency effect is small.
Gel permeation chromatography (GPC)
Molecular weight distribution of hPG-OH core was determined by means of GPC coupled to a refractive index detector (RI) obtaining the complete distribution (Mn, Mp, Mw, dispersity).
Measurements were carried out under highly diluted conditions (5 mg/mL) from a GPC consisting of an Agilent 1100 solvent delivery system with pump, manual injector, and an Agilent differential refractometer. Three 30 cm columns (PPS: Polymer Standards Service GmbH, Germany; Suprema 100 Å, 1000 Å, 3000 Å with 5 and 10 μm particle size) were used to separate aqueous polymer samples using water with 0.1 M NaNO3 as the mobile phase at a flow rate of 1 mL/min. The columns were operated at room temperature with the RI detector at 50 °C. […]
as §3, with “Extinction coefficients were Ɛ = 5500 M−1cm−1 for WPPPPRVPR and Ɛ = 32430 M−1cm−1 for FBP21-tWW.” left out, “ITC experiments were carried out on a Microcal ITC200 (GE Healthcare).” left out
The parameters were set to: temperature 25 °C, spacing: 120 s (for WW1 and WW2 measurements) or 180 s (for tWW measurements), stirring speed: 1000 rpm, feedback gain: high, Filter: 5 s, DP: 7 µcal/s. […] The data was analyzed with Origin and the Microcal ITC 200 AddOn. […]
FBP21-WW1 and FBP21-WW2 were expressed as a GST-tagged variant from pgex4T1 in E. coli BL21 DE3, FBP21-tWW was expressed from a pET28a-His6-FBP21-tWW plasmid in E. coli BL21 DE3 as described previously. […]

WPPPPRVPR peptide = biological target: T4, WPPPPRVPR peptide; experiment: ITC
T4 chain: WPPPPRVPR

hPG-peptide conjugate 2 = biological target: T5, hPG-peptide conjugate 2 (also: multivalent conjugation to hyperbranched polyglycerol amine (about 7 peptides per polymer), site not given here); experiment: ITC
T5 chain: Ac-WPPPPRVPRGSG

Ac-WPPPPRVPRGSG-COOH = biological target: T6, Ac-WPPPPRVPRGSG-COOH; experiment: ITC
T6 chain: Ac-WPPPPRVPRGSG-OH

Molecule: Ac-WPPPPRVPR [WPPPPRVPR]
- Kd (FBP21-WW2): 87 ± 3.4 µM
- Kd (FBP21-WW1): 155 ± 18 µM

Molecule: Ac-WPPPPRVPRGSG [Ac-WPPPPRVPRGSG-COOH]
- entropy loss upon interaction (FBP21-tWW; FBP21-tWW): −19.5 cal/mol/deg
- stoichiometric factor derived from the fit (N) (FBP21-tWW; FBP21-tWW): 1.29 ± 0.0257
- Kd (FBP21-tWW; His6-FBP21-tWW, peptide: protein in cell 200 µM, peptide in syringe 4 mM, conjugate 2: 90 µM in cell, FBP21-tWW 1.4 mM in syringe, read-out: KD of the interaction with FBP21-tWW): 150 ± 6 µM

Molecule: RPPCGYPLP
- WW2 KD (FBP21-WW2): did not show any binding
- WW1 KD (FBP21-WW1): did not show any binding

Molecule: RPPPPHFPQ
- WW2 KD (FBP21-WW2): could not be confirmed as a binder
- WW1 KD (FBP21-WW1): could not be confirmed as a binder

Molecule: YPRPPGPPP [YPRPPGPPP]
- Kd (FBP21-WW2): 68.5 ± 6.9 µM
- Kd (FBP21-WW1): 452 ± 45 µM

Molecule: YPRPTNPRP [YPRPTNPRP]
- Kd (FBP21-WW2): 270 ± 24 µM
- Kd (FBP21-WW1): 490 ± 54 µM

Molecule: RKKDPSKGRWVEGITSEGYHYYYDLISGASQWEKPEGFQG [FBP21 WW1 WW1]
- Kd (WPPPPRVPR peptide): 155 µM

B1: FBP21-tWW WW1-WW2 (protein)
chain: T3 sequence (O75554 122-196 limits assumed)
- Kd (hPG-peptide conjugate 2): 17.6 µM
- Kd (Ac-WPPPPRVPRGSG-COOH): 150 µM

Molecule: LKKTAVKTVWVEGLSEDGFTYYYNTETGESRWEKPDDFIP [FBP21 WW2 WW2]
- Kd (WPPPPRVPR peptide): 87 µM
